Read-outs that look alike come from different tables or passages of the source.
Assay: in vivo
Design: species or system female C3H/HeN mice
Details: mouse; for concentration at 6 h: 6h after dose; for concentration at 8 h: 8h after dose; for concentration at 14 h: 14h after dose; for concentration at 24 h: 24 h after dose; for concentration at 48 h: 48 h after dose; for concentration at 5 min: 5 min after dose; for concentration at 0.25 h: 15 min after dose; for concentration at 0.5 h: 0.5h after dose; for concentration at 0.75 h: 0.75h after dose; for concentration at 1 h: 1h after dose; for Vd: read-out: Vdss; for AUC(0-inf): mean level data
Experimental: Groups of female C3H/HeN mice received the product by the intravenous route as a bolus at a dose level of 40 mg.kg^-1 equivalent to 120 mg.m^-2. Blood and brain samples were obtained from all dosed animals sacrificed at intervals up to 72 hours post dose. Brain and corresponding plasma samples have been assayed for product Ia content by an LC-MS/MS assay.
• Formulation: 2.25 mg.ml^-1 solution containing 5 % Polysorbate 80, 5 % ethanol and 90 % of an aqueous 5 % glucose solution. […]
• Sampling : Blood by cardiac puncture and liver and brain by dissection after CO2 sacrifice • Sample Times : at 2, 5, 15, 30, 45 minutes, 1, 2, 4, 6, 8, 14, 24, 48 and 72 hours post dose.
Whole blood was collected into heparinised tubes and corresponding plasma samples were obtained by centrifugation and frozen immediately at -20°C. Tissues were blotted, weighed and frozen immediately at -20°C. All samples were dispatched frozen for analysis. Upon receipt, samples were stored frozen at approximately -18°C pending analysis.
• Detection: LC-MS/MS (Sciex API III plus) in turbo-ionspray mode
The following MS conditions were applied:
Column: 75 x 4.6 mm Supelcosil ABZ plus (3 µm). Mobile phase: Acetonitrile/methanol/ammonium acetate (10mM); 40/25/35 v/v/v. Flow rate : 1 ml.min^-1. Temperature : Ambient. Extraction : Plasma: Add 100 µl of acetonitrile to sample (50 µl). Vortex, centrifuge, remove supernatant, add 100 µl of mobile phase and inject 150 µl. Brain : Add 100 µl of acetonitrile to homogenised sample (100 mg of a 1:1 w/w brain with water homogenate) and vortex. Add 1ml of diethyl ether, vortex, centrifuge, remove organic layer and dry under N2. Reconstitute in 200 µl of mobile phase and inject 150 µl. Calibration standards: Plasma : Nine at concentrations of 5, 10, 20, 50, 100, 200, 300, 400 & 500 ng.ml^-1 (product Ia). Prepared by adding suitable aliquots of the product (concentrations = 0.1, 1 or 10 µg.ml^-1) in ethanol to 0.5 ml aliquots of mouse plasma. Each sample was vortexed following drug addition; a 50 µl aliquot was then removed for assay. Brain : Eleven at concentrations of 10, 20, 30, 100, 200, 300, 400, 500, 1000, 2500 & 5000 ng.g^-1 in homogenised mouse brain (1:1 w/w brain with water). Prepared by adding suitable aliquots of the product (concentrations = 1, 10 or 100 µg.ml^-1) in ethanol to 0.5, 1, 3 or 4 g of homogenised mouse brain. Each sample was vortexed following drug addition and a 100 mg aliquot was then removed for assay. Retention times: Drug; product Ia: ∼2.3 min. Extraction efficiency : Plasma : ca.58 % at 200 ng.ml^-1. Brain : ca.41 % at 500 ng.g^-1 and 39 % at 1000 ng.g^-1.
A biexponential equation was fitted to the profiles using an interactive linear least-square algorithm as part of the SIPHAR package.
AUC0-∞: Area under the plasma or brain concentration versus time curve from t=0 (start of infusion) to infinity. Initial T1/2: Initial (distribution) half-life. Terminal T1/2: Terminal (elimination) half-life (should be regarded as an estimate only being dependent on sampling frequency in the terminal phase and assay sensitivity). ClT: Total plasma clearance. Vdss: Volume of distribution at steady state. n.a.: Not applicable.

[1] = brain, iv, 40 mg/kg, 40 mg.kg^-1 i.v., MEAN, read-out: Brain product Ic concentration
[2] = brain, iv, 40 mg/kg, 40 mg.kg^-1 i.v., individual animals IV1-IV4, read-out: Brain product Ic concentration
[3] = plasma, iv, 40 mg/kg, 40 mg.kg^-1 i.v., MEAN, read-out: Plasma product Ic concentration
[4] = plasma, iv, 40 mg/kg, 40 mg.kg^-1 i.v., individual animals IV1-IV4, read-out: Plasma product Ic concentration
[5] = plasma, iv, 40 mg/kg, Plasma+, calculated from values ≥ l.o.d. of 4 ng.ml^-1, 40 mg.kg^-1 i.v.

## CO[C@H]1C(=O)[C@]2(C)[C@@H](OC)C[C@H]3OC[C@@]3(OC(C)=O)[C@H]2[C@H](OC(=O)c2ccccc2)[C@]2(O)C[C@H](OC(=O)[C@H](O)[C@@H](NC(=O)OC(C)(C)C)c3ccccc3)C(C)=C1C2(C)C [product Ia, 4α-acetoxy-2α-benzoyloxy-5β,20-epoxy-1β-hydroxy-7β,10β-dimethoxy-9-oxo-11-taxen-13α-yl (2R,3S)-3 tert-butoxycarbonylamino-2-hydroxy-3-phenylpropionate]
brain, iv, 40 mg/kg, 40 mg.kg^-1 i.v., 4h after dose, individual animals IV1-IV4, read-out: Brain product Ic concentration
  concentration at 4 h: 7910 ng/g
[1]
  concentration at 6 h: 6430 ng/g
  concentration at 8 h: 8250 ng/g
  concentration at 14 h: 9130 ng/g
  concentration at 24 h: 8670 ng/g
  concentration at 48 h: 7720 ng/g
[2]
  concentration at 8 h: 9070 ng/g
  concentration at 14 h: 9620 ng/g
  concentration at 24 h: 7900 ng/g
  concentration at 48 h: 6660 ng/g
brain, iv, 40 mg/kg, 40 mg.kg^-1 i.v., 72 h after dose, MEAN, read-out: Brain product Ic concentration
  concentration at 72 h: 5250 ng/g
brain, iv, 40 mg/kg, 40 mg.kg^-1 i.v., 72 h after dose, individual animals IV1-IV4, read-out: Brain product Ic concentration
  concentration at 72 h: 5900 ng/g
brain, iv, 40 mg/kg, 40 mg.kg^-1 i.v., at 2 mins, read-out: brain level at the first sampling time
  concentration at 2 min: 7900 ng/g
brain, iv, 40 mg/kg, 40 mg.kg^-1 i.v., at 72h, read-out: brain concentration at the last sampling time
  concentration at 72 h: 5300 ng/g
plasma, iv, 40 mg/kg, 40 mg.kg^-1 i.v., 2 min after dose, MEAN, read-out: Plasma product Ic concentration
  concentration at 2 min: 46900 ng/mL
plasma, iv, 40 mg/kg, 40 mg.kg^-1 i.v., 2 min after dose, individual animals IV1-IV4, read-out: Plasma product Ic concentration
  concentration at 2 min: 53000 ng/mL
[3]
  concentration at 5 min: 34300 ng/mL
  concentration at 0.25 h: 20500 ng/mL
  concentration at 0.5 h: 10400 ng/mL
  concentration at 0.75 h: 9090 ng/mL
  concentration at 1 h: 6550 ng/mL
  concentration at 6 h: 362 ng/mL
  concentration at 8 h: 188 ng/mL
  concentration at 14 h: 56 ng/mL
  concentration at 24 h: 16 ng/mL
  concentration at 48 h: 2 ng/mL
[4]
  concentration at 5 min: 36700 ng/mL
  concentration at 0.25 h: 20500 ng/mL
  concentration at 0.5 h: 10800 ng/mL
  concentration at 0.75 h: 7130 ng/mL
  concentration at 1 h: 6020 ng/mL
  concentration at 6 h: 449 ng/mL
  concentration at 8 h: 204 ng/mL
  concentration at 14 h: 65 ng/mL
plasma, iv, 40 mg/kg, 40 mg.kg^-1 i.v., 4h after dose, MEAN, read-out: Plasma product Ic concentration
  concentration at 4 h: 962 ng/mL
plasma, iv, 40 mg/kg, 40 mg.kg^-1 i.v., 4h after dose, individual animals IV1-IV4, read-out: Plasma product Ic concentration
  concentration at 4 h: 1070 ng/mL
plasma, iv, 40 mg/kg, 40 mg.kg^-1 i.v., within 4h, read-out: plasma level
  concentration at 4 h: < 1000 ng/mL
plasma, iv, 40 mg/kg, Plasma#, calculated from values ≥ b.l.q. of 20 ng.ml^-1, 40 mg.kg^-1 i.v., read-out: Initial T1/2 (converted)
  half-life: 12 min
plasma, iv, 40 mg/kg, Plasma#, calculated from values ≥ b.l.q. of 20 ng.ml^-1, 40 mg.kg^-1 i.v., read-out: Terminal T1/2 (converted)
  half-life: 120 min
plasma, iv, 40 mg/kg, Plasma#, calculated from values ≥ b.l.q. of 20 ng.ml^-1, 40 mg.kg^-1 i.v.
  Vd: 2.4 L/kg
[5]
  AUC(0-inf): 30000 ng·h/mL
  Vd: 1.9 L/kg
plasma, iv, 40 mg/kg, Plasma+, calculated from values ≥ l.o.d. of 4 ng.ml^-1, 40 mg.kg^-1 i.v., read-out: Initial T1/2 (converted)
  half-life: 42 min
plasma, iv, 40 mg/kg, Plasma+, calculated from values ≥ l.o.d. of 4 ng.ml^-1, 40 mg.kg^-1 i.v., read-out: Terminal T1/2 (converted)
  half-life: 372 min
plasma, iv, 40 mg/kg, calculated from values ≥ b.l.q. of 20 ng.ml^-1, 40 mg.kg^-1 i.v.
  AUC(0-inf): 29800 ng·h/mL
plasma, iv, 40 mg/kg, plasma, 40 mg.kg^-1 i.v., read-out: initial half-life
  half-life: ≤ 42 min
On the basis of AUC0-∞ values, 40 mg.kg^-1 i.v.
  levels in the brain relative to those in the plasma: about twenty times
plasma, iv, 40 mg.kg^-1 i.v., individual animals IV1-IV4, values flagged blq (below limit of accurate quantification, 20 ng.ml^-1), read-out: Plasma product Ic concentration
  concentration at 24 h: 18 ng/mL
plasma, iv, 40 mg.kg^-1 i.v., individual animals IV1-IV4, blq = below 20 ng.ml^-1, n.d. = not detected (≤ l.o.d. of 4 ng.ml^-1), read-out: Plasma product Ic concentration
  concentration at 48 h: 4 ng/mL
plasma, iv, 40 mg.kg^-1 i.v., peak at 2 minutes, read-out: plasma peak level (mean)
  Cmax at 2 min: 46900 ng/mL
post-i.v. administration
  penetration of the blood brain barrier: readily penetrate the blood brain barrier

Reference: patent EP0982027A1, “Taxoid derivatives for treating abnormal cell proliferation of the brain” (RHONE-POULENC RORER S.A., priority 1998, dated 2000)
